# Reference: patent publication EP0182152B1, “Antitumor antibiotics (LL-E33288 Complex)” (AMERICAN CYANAMID COMPANY, priority 1984, dated 1986)
# Columns and labels:
# [1] = test system: lymphocytic leukemia P388; assay: Lymphocytic Leukemia P388 Test; type: in vivo, BDF1 mice; settings: Table IV, i.p. days 1, 5 and 9
# From the text: (§1) Certain in vivo testing systems and protocols have been developed by the National Cancer Institute for testing compounds to determine their suitability as anti-neoplastic agents. These have been reported in "Cancer Chemotherapy Reports", Part III, Vol. 3, No. 2 (1972), Geran, et al. These protocols have established standardized screening tests which are generally followed in the field of testing for antitumor agents. Of these systems, lymphocytic leukemia P388, melanotic melanoma B16, L1210 leukemia and colon 26 adenocarcinoma are particularly significant to the present invention. These neoplasms are utilized for testing as transplantable tumors in mice. Generally, significant anti-tumor activity, shown in these protocols by a percentage increase of mean survival times of the treated animals (T) over the control animals (C), is indicative of similar results in human leukemias and solid tumors.
# The animals used were BDF1 mice, all of one sex, weighing a minimum of 17 g and all within a 3 g weight range. There were 5 or 6 mice per test group. The tumor transplant was by intraperitoneal injection of 0.5 ml of dilute ascitic fluid containing 10^6 cells of lymphocytic leukemia P388. LL-E33288 antibiotics were tested in the P388 system both as the individual β1-Br and […] components and as a complex of all components (Bromo-complex). The test compounds were administered intrapertioneally at a volume of 0.5 ml in 0.2% Klucel in normal saline on days 1, 5 and 9 (relative to tumor inoculation) at the indicated doses. The mice were weighed and the survivors recorded on a regular basis for 30 days. The median survival time and the ratio of survival time for treated (T)/control (C) animals were calculated. The positive control compound was Cisplatin given as an intraperitioneal injection in 0.5 ml of 0.2% Klucel on days 1, 5 and 9 at the indicated doses.
# If T/C X 100 (%) is 125 or over, the tested compound is considered to have significant anti-tumor activity.
# (§2) In the same manner, the following iodo-components were tested for antineoplastic activity.
# [2] = test system: lymphocytic leukemia L1210; assay: Lymphocytic Leukemia L1210 Test; type: in vivo, BDF1 mice; settings: Table VI, i.p., control 8.3 days
# From the text: as §1
# The animals used were BDF1 mice, all of one sex, weighing a minimum of 17 g and all within a 3 g weight range. There were 6 mice in each test group and 18 in control groups. The tumor transplant was by intraperitoneal injection of 0.5 ml of lymphocytic leukemia L1210 at a concentration of 10^5 cells per mouse. LL-E33288 antibiotics were tested in the L1210 system both as the individual β1-Br component and as a complex of all components (Bromo-complex). The test compounds were administered on days 1, 5 and 9 or days 1 through 9 (relative to tumor inoculation) at various doses. The mice were weighed and survivors recorded on a regular basis for 30 days. The median survival time and the ratio of survival time for treated (T)/control (C) animals were calculated. The positive control compound was 1,4-dihydroxy-5,8-bis[[2-(2-hydroxyethylamino)ethyl]amino]anthraquinone dihydrochloride or Cisplatin given intraperitoneally at the indicated dose. If T/C X 100 (%) is 125 or over, the tested compound is considered to have significant anti-tumor activity.
# as §2
# melanotic melanoma B16 = assay: Melanotic Melanoma B16 Test; type: in vivo, BDF1 mice; settings: Table V, i.p. days 1 through 9, control 16 days
# From the text: as §1
# The animals used were BDF1 mice, all of the same sex, weighing a minimum of 17 g and all within a 3 g weight range. There are normally 6 animals per test group. A 1 g portion of melanotic melanoma β16 tumor was homogenized in 10 ml of cold balanced salt solution and a 0.5 ml aliquot of the homogenate was implanted intraperitoneally into each of the test mice. LL-E33288 antibiotics were tested in the β16 system both as the individual β1-Br and γ1-Br components and as a complex of all components (Bromo-complex). The test compounds were administered intraperitioneally on days 1 through 9 (relative to tumor inoculation) at various doses. The mice were weighed and survivors recorded on a regular basis for 60 days. The median survival time and the ratio of survival time for treated (T)/control (C) animals were calculated. The positive control compounds were Cisplatin or Adriamycin. The results of this test appear in Table V. If T/C X 100 (%) is 125 or over, the tested compound is considered to have significant anti-tumor activity.
# as §2
# Colon 26 tumor = assay: Colon 26 Adenocarcinoma Test; type: in vivo, CD2F1 female mice
# From the text: as §1
# The animals used were CD2F1 female mice weighing a minimum of 17 g and all within a 3 g weight range. There were 5 or 6 mice per test group with three groups of 5 or 6 animals used as untreated controls for each test. The tumor implant was by intraperitoneal (or subcutaneous) injection of 0.5 ml of a 2% Colon 26 tumor brei in Eagle's MEM medium containing antibiotics. LL-E33288 antibiotics were tested in the Colon 26 system as a complex (Bromo-complex) of all components. The test compounds were administered intraperitoneally on days 1, 5 and 9 (relative to tumor implant doses). The mice were weighed and deaths recorded on a regular basis for 30 days. The median survival times for treated (T)/control (C) animals were calculated. The positive control compound was Cisplatin. If T/C X 100 (%) is 130 or over, the tested compound is considered to have significant anti-tumor activity.
# as §2
# [3] = dose 0.06 mg/kg, control 10.6 days
# [4] = dose 0.06 mg/kg, control 12.4 days
# [5] = dose 0.25 mg/kg, control 10.6 days
# [6] = dose 0.4 mg/kg, control 12.4 days
# [7] = dose 1.0 mg/kg, control 10.6 days
# [8] = dose 1.0 mg/kg, control 12.4 days
# [9] = Table VII, i.p. days 1, 5 and 9, dose 0.25 mg/kg, control 18.6 days
# [10] = Table VII, i.p. days 1, 5 and 9, dose 0.5 mg/kg, control 18.6 days
# [11] = Table VII, i.p. days 1, 5 and 9, dose 1 mg/kg, control 18.6 days
# [12] = Table XII, dose 0.5 mg/kg, control 18.5 days
# [13] = Table XII, dose 1 mg/kg, control 18.5 days
# [14] = Table XII, dose 2 mg/kg, control 18.5 days
structure (smiles),measurement,setting,value
"N.N.[Cl][Pt][Cl] [Cisplatin, reference compound]",Median Survival,[1]; [3],14.5 days
same,T/C x 100,[1]; [3],137%
same,Median Survival,[1]; [4],15 days
same,T/C x 100,[1]; [4],121%
same,Median Survival,[1]; [5],15 days
same,T/C x 100,[1]; [5],142%
same,Median Survival,[1]; [6],19 days
same,T/C x 100,[1]; [6],153%
same,Median Survival,[1]; [7],21.5 days
same,T/C x 100,[1]; [7],203%
same,Median Survival,[1]; [8],25.5 days
same,T/C x 100,[1]; [8],206%
same,Median Survival,[2]; dose 1.25 mg/kg,11 days
same,T/C x 100,[2]; dose 1.25 mg/kg,133%
same,Median Survival,[2]; dose 2.5 mg/kg,12 days
same,T/C x 100,[2]; dose 2.5 mg/kg,145%
same,Median Survival,[2]; dose 5 mg/kg,7.5 days
same,T/C x 100,[2]; dose 5 mg/kg,90%
same,Median Survival,melanotic melanoma B16; dose 0.05 mg/kg,21.5 days
same,T/C x 100,melanotic melanoma B16; dose 0.05 mg/kg,134%
same,Median Survival,melanotic melanoma B16; dose 0.1 mg/kg,23 days
same,T/C x 100,melanotic melanoma B16; dose 0.1 mg/kg,144%
same,Median Survival,melanotic melanoma B16; dose 0.2 mg/kg,25 days
same,T/C x 100,melanotic melanoma B16; dose 0.2 mg/kg,156%
same,Median Survival,melanotic melanoma B16; dose 0.4 mg/kg,25 days
same,T/C x 100,melanotic melanoma B16; dose 0.4 mg/kg,156%
same,Median Survival,Colon 26 tumor; [9],37.5 days
same,T/C x 100,Colon 26 tumor; [9],202%
same,Median Survival,Colon 26 tumor; [10],38.5 days
same,T/C x 100,Colon 26 tumor; [10],207%
same,Median Survival,Colon 26 tumor; [11],29 days
same,T/C x 100,Colon 26 tumor; [11],156%
same,Median Survival,Colon 26 tumor; [12],23.5 days
same,T/C x 100,Colon 26 tumor; [12],127%
same,Median Survival,Colon 26 tumor; [13],27.5 days
same,T/C x 100,Colon 26 tumor; [13],149%
same,Median Survival,Colon 26 tumor; [14],15.5 days
same,T/C x 100,Colon 26 tumor; [14],84%
